# Residues, ends and D or L forms follow the SMILES beside them. *: point of attachment. Cbz = O=C(OCc1ccccc1)*; CH2F = FC*
# Tests used:
# [1] = target: T1, FL-C7 (full-length caspase-7) (Homo sapiens, UniProt P55210); assay: Inhibitor specificity in hypotonic 293 extracts, full-length caspase-7; type: biochemical; settings: inhibitor 20 μM for 5 min, then KMB01 30 min
# T1 construct: the p37 band as the full-length caspase-7 with intact N-terminus (FL-C7); endogenous in cells
# T1 sequence (P55210 1-303): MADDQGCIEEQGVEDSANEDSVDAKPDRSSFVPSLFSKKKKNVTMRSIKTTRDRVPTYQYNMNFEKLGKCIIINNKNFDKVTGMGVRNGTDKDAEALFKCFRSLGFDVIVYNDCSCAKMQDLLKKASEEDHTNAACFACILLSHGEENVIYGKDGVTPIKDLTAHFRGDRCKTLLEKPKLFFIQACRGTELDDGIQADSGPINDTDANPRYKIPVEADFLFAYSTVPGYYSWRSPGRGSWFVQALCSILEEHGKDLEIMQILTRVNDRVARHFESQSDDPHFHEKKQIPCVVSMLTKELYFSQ
# Description: (§1) FIGS. 6 A-E illustrate that full-length active caspase-7 has unique inhibitor specificity and is processed to mature forms by downstream executioner caspases. (A) The caspase-3 specific inhibitor causes accumulation of a catalytically active full-length form of caspase-7. Cytosolic extracts from 293 cells were activated with cytochrome c/dATP for the indicated times followed by labeling with KMB01 (left panel) and western blotting with a caspase-7 specific antibody (right panel) as in FIG. 5A. […] (B) The exact same experiment as (A) except extracts from MCF-7 cells were used in place of 293 extracts. (**) indicates forms of caspase-7 that are likely a result of the alternative transcription start site at methionine-45 (C) Quantification of the relative activity of FL-C7 in uninhibited 293 extracts (from FIG. 5A), AB06 treated 293 extracts (from (A)) and uninhibited MCF-7 extracts (from (B)) (D) Inhibitor specificity of full-length and processed forms of caspase-7. Extracts (293) were activated for 5 min with cytochrome c/dATP and then incubated with NP-capped AOMK inhibitors containing the indicated primary amino acid sequences for 5 minutes before KMB01 was added and allowed to label residual caspase active sites for 30 minutes. Samples were analyzed by SDS-PAGE followed by biotin blotting using strepavidin-HRP (left panel) or western blotting for caspase-7 (right panel). Identities of labeled caspases are indicated. (E) Specificity of AB06 after prolonged incubation times. Extracts were treated with AB06 at the indicated concentrations simultaneously with cytochrome c/dATP. At the indicated times after activation, samples were labeled with KMB01 (10 μM) for 30 minutes. Labeled caspases were resolved by SDS-PAGE analysis followed by biotin blotting using strepavidin-HRP.
# To further confirm our assignment of the labeled species we treated samples at various activation times with purified recombinant Bir3 domain of XIAP. […]
# (§2) An additional surprising finding from the inhibitor studies was the overall lack of inhibition of the FL-C7 species by AB06 relative to mature p20 forms of caspase-7. […] Samples were analyzed for active site labeling and protein levels of both full-length and p20 forms of caspase-7 were monitored by western blot (FIG. 6D).
# Hypotonic 293 extracts (73 μg of total protein) were activated as described above and allowed to incubate for the indicated times. […] Labeling was carried out for an additional 30 minutes and samples (13.5 μg total protein) were analyzed by SDS-PAGE and biotin blotting as described above.
# (§3) Hypotonic 293 extracts (73 μg of total protein) were activated at 37° C. for 5 minutes as described above. […] Samples (13.5 μg total protein) were analyzed by SDS-PAGE and biotin blotting as described above
# [2] = target: T2, mature p20 forms of caspase-7 (Homo sapiens, UniProt P55210); assay: Inhibitor specificity in hypotonic 293 extracts, mature p20 caspase-7; type: biochemical; settings: inhibitor 20 μM for 5 min, then KMB01 30 min
# T2 construct: p20 is mature large subunit of caspase-7 with N-terminal peptide removed; processing of the zymogen to the large and small subunits by activity of the initiator caspases; endogenous in cells
# T2 sequence (P55210 24-198 limits assumed): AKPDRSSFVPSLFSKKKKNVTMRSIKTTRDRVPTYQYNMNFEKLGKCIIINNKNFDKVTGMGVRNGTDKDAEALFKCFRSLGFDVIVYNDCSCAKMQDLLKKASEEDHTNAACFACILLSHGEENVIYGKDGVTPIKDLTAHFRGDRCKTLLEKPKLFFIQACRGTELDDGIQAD
# T2 sequence (P55210 207-303 limits assumed): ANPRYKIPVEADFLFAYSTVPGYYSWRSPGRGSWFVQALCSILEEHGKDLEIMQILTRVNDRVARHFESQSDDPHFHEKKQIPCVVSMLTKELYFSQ
# Description: as §1
# as §2, with “mature p20 forms of caspase-7. This was surprising since the sequence of AB06 (NP-D3VD-AOMK) differs from the KMB01 probe sequence (Bio-EVD-AOMK) only at the P3 residue. […] We therefore wanted to use inhibitors to compare the ability of different P3 elements to bind to full-length and p20 mature forms of” for “mature p20 forms of”
# as §3
# [3] = tested on: cathepsin B and legumain; assay: In vivo labeling of cathepsin B and legumain in kidney and spleen of normal mice; settings: intravenous, tissues collected 2 hrs after injection
# Protocol: The present selective caspase inhibitors may be used for in vivo imaging. Cy5-fluorescent labeled versions of AB46 and AB50 were injected into normal mice and labeling of cathepsins and legumain in kidney and spleen was monitored (FIG. 14).
# Normal mice were intravenously injected with the probes and tissues were collected 2 hrs after injection. Tissues were homogenized and total protein samples were analyzed by SDS-PAGE followed by scanning of the gel using a fluorescent scanner.
# [4] = target: Caspase-8 (Homo sapiens, UniProt Q14790); assay: Kinetic compound screening, progress curve method, caspase-8; type: biochemical
# Sequence of Caspase-8 (Q14790 217-479): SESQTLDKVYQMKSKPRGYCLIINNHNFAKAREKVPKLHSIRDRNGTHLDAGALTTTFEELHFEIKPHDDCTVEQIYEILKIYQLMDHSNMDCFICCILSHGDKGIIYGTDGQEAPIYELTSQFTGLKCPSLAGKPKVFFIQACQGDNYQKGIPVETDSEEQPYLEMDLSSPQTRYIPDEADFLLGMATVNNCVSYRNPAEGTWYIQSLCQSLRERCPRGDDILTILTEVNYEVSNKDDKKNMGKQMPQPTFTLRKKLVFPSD
# Description: (§4) Table III below presents Ki(app) values for select AB compounds. Ki(app) values (also called Kass or Kobs/I) represent the speed of inhibitor binding to a target enzyme. Units are [M^−1s^−1]. NI indicates no inhibition at concentrations tested. Parent compounds AB09, ABo8, and AB07 that include the optimal substrate specificity sequences for caspases-3, […] as determined by Thornberry and colleagues (Thornberry et al., 19970 are included between double lines.
# (§5) The inhibitors AB07 (NP-LEHD-AOMK, caspase-9), AB08 (NP-LETD-AOMK, caspase-8), and AB09 (NP-DEVD-AOMK, caspase-3) were synthesized and kinetic inhibition constants (Kiapp) were obtained for all compounds for caspases 3, 7, 8 and 9 using the progress curve method for pseudo-first order reactions kinetics (Salvesen, 1989) (structures shown in Table I). […] Ki(app) values (also called Kass or Kobs/I) represent the speed of inhibitor binding to a target enzyme. Units are [M-1s-1]. NI indicates no inhibition at concentrations tested, ND indicates data not determined, SD indicates standard deviation.
# (§6) Compound screening was completed using the progress curve method as described (Salvesen, 1989). All screening was carried out in caspase reaction buffer. The caspase-9 specific compounds AB38, 40, 41 and 42 were screened in caspase reaction buffer and in caspase buffer with 1M sodium citrate instead of sucrose as described (Pop, 2006) The concentrations of active caspases used is as follows: 5 nM active caspase-3, 5 nM active caspase-7, 10 nM active caspase-8, and 50 nM active caspase-9. To ensure full activation, caspases 3/7, 8 and 9 were preincubated at 37° C. for 5, 10, or 40 minutes respectively before kinetic measurements were made.
# [5] = target: T3, Caspase-9 (Homo sapiens, UniProt P55211); assay: Kinetic compound screening, progress curve method, caspase-9; type: biochemical; settings: NI = no inhibition at concentrations tested
# T3 sequence (P55211 1-416): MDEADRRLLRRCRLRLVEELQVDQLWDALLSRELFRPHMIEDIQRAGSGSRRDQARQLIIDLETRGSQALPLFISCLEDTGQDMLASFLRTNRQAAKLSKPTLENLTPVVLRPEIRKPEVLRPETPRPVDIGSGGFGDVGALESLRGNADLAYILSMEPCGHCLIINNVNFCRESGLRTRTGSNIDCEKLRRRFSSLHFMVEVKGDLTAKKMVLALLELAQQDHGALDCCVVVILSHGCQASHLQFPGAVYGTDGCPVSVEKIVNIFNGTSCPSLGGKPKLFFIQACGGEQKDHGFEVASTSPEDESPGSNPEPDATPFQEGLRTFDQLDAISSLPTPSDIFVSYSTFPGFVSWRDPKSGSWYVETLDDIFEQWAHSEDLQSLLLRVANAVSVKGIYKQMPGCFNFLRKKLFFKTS
# Description: as §4, §5, §6
# [6] = tested on: sepsis; settings: mouse model; cited from earlier work
# [7] = target: T4, Caspase-7 (Homo sapiens, UniProt P55210); assay: Kinetic compound screening, progress curve method, caspase-7; type: biochemical
# T4 sequence (P55210 1-303): T1 sequence (P55210 1-303)
# Description: as §4, §5, §6
# [8] = tested on: death receptor-mediated liver injury; settings: animal models; cited from earlier work
# [9] = tested on: extrinsic and intrinsic apoptotic pathways after spinal cord injury; settings: animal models; cited from earlier work
# [10] = target: T5, Caspase-3 (Homo sapiens, UniProt P42574); assay: Kinetic compound screening, progress curve method, caspase-3; type: biochemical
# T5 sequence (P42574 29-175 limits assumed): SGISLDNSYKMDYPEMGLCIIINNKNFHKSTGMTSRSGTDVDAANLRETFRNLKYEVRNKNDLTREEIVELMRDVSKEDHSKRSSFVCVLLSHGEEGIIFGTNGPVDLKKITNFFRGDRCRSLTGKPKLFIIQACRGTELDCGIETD
# T5 sequence (P42574 176-277 limits assumed): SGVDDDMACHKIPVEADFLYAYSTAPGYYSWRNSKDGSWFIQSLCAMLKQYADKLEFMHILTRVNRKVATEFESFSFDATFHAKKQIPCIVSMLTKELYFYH
# Description: as §4, §5, §6
# [11] = tested on: Myocardial infarction and the resulting death of myocytes; settings: animal models; cited from earlier work
# [12] = tested on: legumain and cathepsin B in RAW cell extracts; assay: Direct labeling of RAW cell extracts with Cy5 probes; type: binding; settings: varying concentrations
# Description: Cy5 fluorescently labeled versions of the three best caspase probes were compared in direct labeling experiments using recombinant caspase-3 (FIG. 13, bottom panels) and RAW cell extracts (FIG. 13, top panels). […] All probes have similar reactivity towards recombinant caspase-3.
compound,measurement,setting,value
"Cc1cccc(C)c1C(=O)OCC(=O)[C@H](CC(=O)O)NC(=O)[C@@H](NC(=O)[C@H](Cc1ccncc1)NC(=O)Cc1ccccc1)C(C)C [AB37, Cbz-3-V-D-AOMK]",inhibition of FL-C7 labeling,[1],relatively insensitive to inhibition
same,block of KMB01 labeling of mature p20 caspase-7,[2],incomplete inhibition
"Cc1cccc(C)c1C(=O)OCC(=O)[C@H](CC(=O)O)NC(=O)[C@@H](NC(=O)[C@H](CCC(=O)O)NC(=O)Cc1ccc(O)c([N+](=O)[O-])c1)C(C)C [AB45, Np-E-V- D-AOMK]",inhibition of FL-C7 labeling,[1],almost totally inhibited
same,block of KMB01 labeling of mature p20 caspase-7,[2],efficiently blocked labeling
"CC[C@H](NC(=O)[C@@H](CCC(=O)O)NC(=O)Cc1ccc(O)c([N+](=O)[O-])c1)C(=O)N[C@@H](CC(=O)O)C(=O)COC(=O)c1c(C)cccc1C [AB46, Np-E-8-D-AOMK]",in vivo labeling in kidney and spleen,[3],significant labeling of both legumain and cathepsin B
"COC(=O)C[C@H](NC(=O)[C@H](C)NC(=O)[C@@H](NC(=O)OCc1ccccc1)C(C)C)C(=O)CF [ZVAD-fmk, benzyloxycarbonyl-Val-Ala-Asp-fluoromethylketone, reference compound] (Cbz-Val-Ala-Asp(OMe)-CH2F)",Ki(app) Caspase-8,"[4]; Table III, Ki(app) = Kass or Kobs/I, 10 nM active caspase-8",203286 M⁻¹ s⁻¹
same,Caspase-8 Ki (app),"[4]; Table IV, NI = no inhibition at concentrations tested","203,286 M-1s-1"
same,Ki(app) Caspase-9,"[5]; Table III, Ki(app) = Kass or Kobs/I, 50 nM active caspase-9","<5,000 M^−1s^−1"
same,Caspase-9 Ki (app),[5]; Table IV,"<5,000 M-1s-1"
same,effect on sepsis,[6],efficiently reduced
same,Ki(app) Caspase-7,"[7]; Table III, Ki(app) = Kass or Kobs/I, 5 nM active caspase-7","<5,000 M^−1s^−1"
same,Caspase-7 Ki (app),[7]; Table IV,"<5,000 M-1s-1"
same,protection against liver injury,[8],protective and efficiently blocked death receptor-mediated liver injury
same,effect after spinal cord injury,[9],reduced lesion size and improved motor function
same,Ki(app) Caspase-3,"[10]; Table III, Ki(app) = Kass or Kobs/I, 5 nM active caspase-3",25922 M⁻¹ s⁻¹
same,Caspase-3 Ki(app),[10]; Table IV,"25,922 M-1s-1"
same,effect on myocardial infarction and death of myocytes,[11],ameliorated
Cy5-hex-EPD-AOMK [AB50-Cy5],direct labeling of off targets in RAW cell extracts,[12],only labels legumain

# Reference: US20100068150A1, “Selective Caspase Inhibitors” (The Board of Trustees of the Leland Stanford Junior …, priority 2006, published 2010)
